Measured values taken from ChEMBL document CHEMBL1909046, “DrugMatrix in vitro pharmacology data”.

Tests used:
[1] = molecular target: T1, Alpha-1A adrenergic receptor (Rattus norvegicus, UniProt P43140); assay: DRUGMATRIX: Alpha-1A adrenergic receptor radioligand binding (ligand: prazosin); assay type: cell membranes, Wistar, Submaxillary gland, Membrane; details: Not Active = under 50% inhibition at 10 µM
T1 sequence (P43140 whole entry): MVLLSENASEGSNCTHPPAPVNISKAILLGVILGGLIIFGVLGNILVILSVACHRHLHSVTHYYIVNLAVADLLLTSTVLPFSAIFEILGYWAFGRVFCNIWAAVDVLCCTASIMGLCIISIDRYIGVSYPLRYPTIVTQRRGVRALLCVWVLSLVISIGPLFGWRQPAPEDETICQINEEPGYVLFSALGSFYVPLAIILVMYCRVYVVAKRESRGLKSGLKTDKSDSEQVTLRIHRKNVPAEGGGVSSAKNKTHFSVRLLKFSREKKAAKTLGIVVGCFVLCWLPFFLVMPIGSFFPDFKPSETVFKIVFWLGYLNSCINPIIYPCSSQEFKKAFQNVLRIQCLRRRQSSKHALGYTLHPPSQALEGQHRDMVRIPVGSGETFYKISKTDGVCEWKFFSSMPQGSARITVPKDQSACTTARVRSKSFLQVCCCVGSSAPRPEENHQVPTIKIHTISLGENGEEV

[2] = molecular target: Kappa-type opioid receptor (Homo sapiens, UniProt P41145); assay: DRUGMATRIX: Opiate kappa (OP2, KOP) radioligand binding (ligand: [3H] Diprenorphine); assay type: cell membranes, HEK293, Membrane; details: hek293; Not Active = under 50% inhibition at 10 µM
[3] = molecular target: Delta-type opioid receptor (Homo sapiens, UniProt P41143); assay type: cell membranes, Membrane; details: hek293; further: in other assays of this panel Not Active means under 50% inhibition at 10 µM
Caspase-1 = molecular target: T2, Caspase-1 (Homo sapiens, UniProt P29466); design: species or system Escherichia coli;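 further: Caspase-1 enzyme inhibition assay with a peptide substrate; in other assays of this panel Not Active means under 50% inhibition at 10 µM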
T2 sequence (P29466 whole entry): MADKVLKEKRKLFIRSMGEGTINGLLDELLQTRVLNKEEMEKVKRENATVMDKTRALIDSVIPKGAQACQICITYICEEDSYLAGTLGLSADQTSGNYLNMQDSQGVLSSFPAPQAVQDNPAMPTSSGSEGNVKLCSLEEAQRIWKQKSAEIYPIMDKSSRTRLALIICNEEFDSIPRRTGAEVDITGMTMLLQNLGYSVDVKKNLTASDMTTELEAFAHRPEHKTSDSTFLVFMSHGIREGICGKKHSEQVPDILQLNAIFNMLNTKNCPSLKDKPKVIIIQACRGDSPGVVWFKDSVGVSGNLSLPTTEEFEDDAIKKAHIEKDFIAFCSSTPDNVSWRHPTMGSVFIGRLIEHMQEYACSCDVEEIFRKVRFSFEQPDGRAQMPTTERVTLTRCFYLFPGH

[4] = molecular target: Matrix metalloproteinase-9 (Homo sapiens, UniProt P14780); assay: biochemical; assay type: cell-based;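 further: inhibition of isolated MMP-9 enzyme activity toward a synthetic peptide substrate, from the DrugMatrix protease screening panel; in other assays of this panel Not Active means under 50% inhibition at 10 µM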
Leukotriene C4 synthase = molecular target: T3, Leukotriene C4 synthase (Cavia porcellus, UniProt A6XA80); assay type: tissue-based, Lung;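 further: enzyme inhibition assay of leukotriene C4 synthase, using LTA4 as the substrate; in other assays of this panel Not Active means under 50% inhibition at 10 µM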
T3 sequence (A6XA80 whole entry): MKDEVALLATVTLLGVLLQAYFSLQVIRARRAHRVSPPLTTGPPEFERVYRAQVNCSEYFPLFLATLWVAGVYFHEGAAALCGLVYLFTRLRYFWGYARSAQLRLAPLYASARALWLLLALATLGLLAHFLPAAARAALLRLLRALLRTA

[5] = molecular target: T4, Alpha-1D adrenergic receptor (Homo sapiens, UniProt P25100); assay type: cell membranes, HEK293, Membrane; further: in other assays of this panel Not Active means under 50% inhibition at 10 µM
T4 sequence (P25100 whole entry): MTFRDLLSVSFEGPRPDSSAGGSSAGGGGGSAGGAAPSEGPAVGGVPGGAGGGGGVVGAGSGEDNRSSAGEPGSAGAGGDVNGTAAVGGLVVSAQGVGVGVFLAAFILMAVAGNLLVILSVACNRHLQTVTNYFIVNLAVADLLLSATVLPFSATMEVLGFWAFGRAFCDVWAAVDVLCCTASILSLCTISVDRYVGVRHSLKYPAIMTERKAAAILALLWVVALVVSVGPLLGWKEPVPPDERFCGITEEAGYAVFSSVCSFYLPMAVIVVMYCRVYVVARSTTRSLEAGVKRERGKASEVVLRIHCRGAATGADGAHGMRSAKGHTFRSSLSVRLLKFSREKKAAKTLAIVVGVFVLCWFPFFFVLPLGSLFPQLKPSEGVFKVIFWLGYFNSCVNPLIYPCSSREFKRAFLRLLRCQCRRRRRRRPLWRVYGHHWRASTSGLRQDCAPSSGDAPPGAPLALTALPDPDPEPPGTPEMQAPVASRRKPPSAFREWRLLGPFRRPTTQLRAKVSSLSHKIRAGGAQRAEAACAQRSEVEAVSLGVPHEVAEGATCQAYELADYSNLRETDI

Chain of Matrix metalloproteinase-9 (P14780 whole entry): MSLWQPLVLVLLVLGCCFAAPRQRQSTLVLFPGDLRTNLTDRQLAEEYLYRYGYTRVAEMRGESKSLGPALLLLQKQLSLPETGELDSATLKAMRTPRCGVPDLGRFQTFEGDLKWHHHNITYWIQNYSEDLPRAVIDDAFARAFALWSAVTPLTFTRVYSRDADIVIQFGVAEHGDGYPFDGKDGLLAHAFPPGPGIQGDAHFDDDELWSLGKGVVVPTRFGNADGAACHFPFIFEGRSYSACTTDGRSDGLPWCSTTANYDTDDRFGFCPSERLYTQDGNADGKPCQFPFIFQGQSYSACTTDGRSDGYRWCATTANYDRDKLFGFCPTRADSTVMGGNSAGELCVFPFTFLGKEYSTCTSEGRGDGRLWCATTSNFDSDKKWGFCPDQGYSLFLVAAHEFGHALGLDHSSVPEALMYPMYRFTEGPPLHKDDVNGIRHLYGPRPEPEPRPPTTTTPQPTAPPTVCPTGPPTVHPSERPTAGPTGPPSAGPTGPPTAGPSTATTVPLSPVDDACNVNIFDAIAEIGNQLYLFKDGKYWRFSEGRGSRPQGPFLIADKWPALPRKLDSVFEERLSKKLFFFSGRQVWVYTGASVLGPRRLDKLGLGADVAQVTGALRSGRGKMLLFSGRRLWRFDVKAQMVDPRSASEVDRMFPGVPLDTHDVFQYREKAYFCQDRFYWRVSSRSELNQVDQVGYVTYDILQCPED
Chain of Delta-type opioid receptor (P41143 whole entry): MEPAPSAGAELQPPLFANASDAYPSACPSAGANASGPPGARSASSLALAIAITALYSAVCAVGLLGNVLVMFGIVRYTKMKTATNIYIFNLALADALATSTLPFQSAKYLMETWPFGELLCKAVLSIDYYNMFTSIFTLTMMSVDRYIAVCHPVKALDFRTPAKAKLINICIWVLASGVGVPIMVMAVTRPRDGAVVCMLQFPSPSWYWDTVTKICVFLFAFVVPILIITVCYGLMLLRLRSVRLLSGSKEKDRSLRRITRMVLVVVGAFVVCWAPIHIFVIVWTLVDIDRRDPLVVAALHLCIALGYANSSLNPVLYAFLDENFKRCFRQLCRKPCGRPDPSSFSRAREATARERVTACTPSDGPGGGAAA
Chain of Kappa-type opioid receptor (P41145 whole entry): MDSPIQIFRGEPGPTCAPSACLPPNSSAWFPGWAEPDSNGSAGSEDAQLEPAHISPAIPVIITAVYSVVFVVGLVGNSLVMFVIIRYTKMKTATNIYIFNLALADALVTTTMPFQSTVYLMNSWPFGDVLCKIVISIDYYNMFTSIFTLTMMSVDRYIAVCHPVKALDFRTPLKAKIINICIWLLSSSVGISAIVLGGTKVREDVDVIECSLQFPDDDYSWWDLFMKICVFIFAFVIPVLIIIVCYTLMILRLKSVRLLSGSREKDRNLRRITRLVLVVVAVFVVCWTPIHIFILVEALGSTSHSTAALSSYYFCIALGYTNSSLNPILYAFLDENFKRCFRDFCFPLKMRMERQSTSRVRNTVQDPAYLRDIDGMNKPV

Row | Compound | IC50 [1] | IC50 [2] | IC50 [3] | IC50 (Caspase-1) | IC50 [4] | IC50 (Leukotriene C4 synthase) | IC50 ([5]; hek293) | IC50 ([5]; read-out: IC50) [µM] | Ki ([5]; read-out: Ki) [µM] | Ki [1] | Ki [3] | Ki (Caspase-1) | Ki [4] | Ki (Leukotriene C4 synthase) | Ki ([5]; hek293)
1 | CCN(CC)CCOc1ccc(/C(=C(/Cl)c2ccccc2)c2ccccc2)cc1 [ENCLOMIPHENE] | Not Active | Not Active | Not Active | Not Active | Not Active | Not Active | Not Active | – | – | – | – | – | – | – | –
2 | Clc1ccccc1CN1CCc2sccc2C1 [TICLOPIDINE] | Not Active | Not Active | Not Active | Not Active | Not Active | Not Active | Not Active | – | – | – | – | – | – | – | –
3 | CC(C)Oc1ccc2c(=O)c(-c3ccccc3)coc2c1 [IPRIFLAVONE] | Not Active | Not Active | Not Active | Not Active | Not Active | Not Active | Not Active | – | – | – | – | – | – | – | –
4 | COc1cc2nc(N3CCN(C(=O)C4CCCO4)CC3)nc(N)c2cc1OC (stereo not drawn) [TERAZOSIN] | – | Not Active | Not Active | Not Active | Not Active | Not Active | – | 0.017 | 0.00836 | – | – | – | – | – | –
5 | C[C@H]1C[C@@H]2[C@H]([C@@H](O)C[C@@]3(C)[C@H]2CC[C@]3(O)C(=O)CO)[C@@]2(C)C=CC(=O)C=C12 [METHYLPREDNISOLONE] | Not Active | Not Active | Not Active | Not Active | Not Active | Not Active | Not Active | – | – | – | – | – | – | – | –
6 | NC1CCN(c2nc3c(cc2F)c(=O)c(C(=O)O)cn3-c2ccc(F)cc2F)C1 (stereo not drawn) [TOSUFLOXACIN] | Not Active | Not Active | Not Active | Not Active | Not Active | Not Active | Not Active | – | – | – | – | – | – | – | –
7 | SODIUM ORTHOVANAD | Not Active | – | Not Active | Not Active | Not Active | Not Active | Not Active | – | – | Not Active | Not Active | Not Active | Not Active | Not Active | Not Active
8 | Cc1c(C)c2c(c(C)c1O)CCC(C)(CN1CCN(c3cc(N4CCCC4)nc(N4CCCC4)n3)CC1)O2 (stereo not drawn) | Not Active | Not Active | Not Active | Not Active | Not Active | Not Active | – | 26.7 | 13.1 | – | – | – | – | – | –
9 | O=C(O)c1cn(-c2ccc(F)cc2)c2cc(N3CCNCC3)c(F)cc2c1=O [SARAFLOXACIN] | Not Active | Not Active | Not Active | Not Active | Not Active | Not Active | Not Active | – | – | – | – | – | – | – | –
10 | Nc1cc(N2CCCCC2)nc(N)[n+]1[O-] [MINOXIDIL] | Not Active | Not Active | Not Active | Not Active | Not Active | Not Active | Not Active | – | – | – | – | – | – | – | –
11 | CC(C)NCC(O)c1ccc(NS(C)(=O)=O)cc1 (stereo not drawn) [SOTALOL] | Not Active | Not Active | Not Active | Not Active | Not Active | Not Active | Not Active | – | – | – | – | – | – | – | –
12 | CS(=O)(=O)c1ccc([C@@H](O)[C@@H](CO)NC(=O)C(Cl)Cl)cc1 [THIAMPHENICOL] | Not Active | Not Active | Not Active | Not Active | Not Active | Not Active | Not Active | – | – | – | – | – | – | – | –
13 | CN(C)CCOC(c1ccccc1)c1ccccc1 [DIPHENHYDRAMINE] | Not Active | Not Active | Not Active | Not Active | Not Active | Not Active | Not Active | – | – | – | – | – | – | – | –
14 | CC[C@@H](C(=O)[C@@H](C)[C@@H](O)[C@H](C)[C@@H]1O[C@@H]([C@@H](CC)C(=O)O)CC[C@@H]1C)[C@H]1O[C@]2(C=C[C@@H](O)[C@]3(CC[C@@](C)([C@H]4CC[C@](O)(CC)[C@H](C)O4)O3)O2)[C@H](C)C[C@@H]1C [SALINOMYCIN] | Not Active | – | Not Active | Not Active | Not Active | Not Active | Not Active | – | – | – | – | – | – | – | –
